Experimental data reported in EP0678516B1, “Preparation of 2-bromo-5-(2-bromo-2-nitrovinyl)-furan and its use as microcide” (CENTRO DE BIOACTIVOS QUIMICOS DE LA UNIVERSIDAD CENTRAL DE …, priority 1994, dated 1995).
≈ marks a conversion by molar mass, not a printed value.

Experiments:
Bacillus subtilis = experiment: In vitro MIC (serial dilution); type: cell-based
Protocol: (§1) The antimicrobial sensitivity was first evaluated "in vitro" using the serial dilution method for bacteria and fungi. Other growth methods in agar cultures were included for other species. The liquid and solid mediums used were Mueller-Hinton, Tryptona Soya, Sabouraud Dextrosa, Sabouraud Maltose and other mediums in accordance with the cultural demands of the micro-organisms valued.
(§2) The temperature and incubation period was adjusted to conditions and characteristics of the micro-organisms used.
(§3) The Minimal Inhibitory Concentration (MIC) was calculated in terms of MIC50 and MIC90 in µg/ml.

Candida pseudotropicalis = experiment: In vitro MIC (serial dilution); type: cell-based; details: Kluyveromyces marxianus
Protocol: as §1, §2, §3

Candida stellatoidea = experiment: In vitro MIC (serial dilution); type: cell-based; details: Candida albicans
Protocol: as §1, §2, §3

Haemophilus influenzae = experiment: In vitro MIC (serial dilution); type: cell-based
Protocol: as §1, §2, §3

Listeria monocytogenes = experiment: In vitro MIC (serial dilution); type: cell-based
Protocol: as §1, §2, §3

Proteus mirabilis = experiment: In vitro MIC (serial dilution); type: cell-based
Protocol: as §1, §2, §3

Trichophyton rubrum = experiment: In vitro MIC (serial dilution); type: cell-based
Protocol: as §1, §2, §3

[1] = system: Mycoplasma bovigenitalium; experiment: In vitro MIC; type: cell-based; details: Mycoplasmopsis bovigenitalium, single value, MIC50 or MIC90 not stated, read-out: Minimal Inhibitory Concentration (MIC)
Protocol: as §1, §2, §3

Oral LD50 = type: in vivo, mice OF1; details: taken orally, tragacant gum as vehicle
Excerpt: (§4) Moreover, the anatomopathological elements and the clinical events were characterized during the experiments.

Percutaneous LD50 [2] = type: in vivo, mice OF1; details: interscapular region, 0.2 ml/10 g of body mass
Excerpt: as §4

Percutaneous LD50 [3] = type: in vivo, Sprague Dawley rats; details: interscapular region, 0.2 ml/10 g of body mass
Excerpt: as §4

[4] = Ophthalmic irritability studies; type: in vivo
Excerpt: as §4

[5] = Chronic study, external application for six months; type: in vivo, Sprague Dawley rats; details: applied externally for a period of six months
Excerpt: Chronic studies of 2-bromo-5-(2-bromo-nitro-vinyl)-furan were made on Sprague Dawley rats.

Pseudomonas aeruginosa [6] = experiment: Experimental eye infection, erosion and instillation method; type: in vivo, New Zealand Rabbits; details: post inoculation evaluation
Protocol: The effectiveness of two oil formulations was checked of 0.05% for the experimental treatment of eye infections by Pseudomonas aeruginosa in New Zealand Rabbits through the erosion and instillation method. The effectiveness of treatments was tested clinically and microbiologically, observing significant differences with the control group (not treated) (Table No. 2 and 2.1.).

Pseudomonas aeruginosa [7] = experiment: Experimental infection, implanted sponge method; type: in vivo, mice
Protocol: The effectiveness of three oil formulations were also tested, at 0.15, 0.2, 0.25% and a control with placebo in mice experimentally infected using implanted sponge method, inoculated with Pseudomonas aeruginosa and Staphylococcus aureus. Recuperation of the animal was between 3 and 4 days of treatment (Tables No. 3 and 3.1).
Read: n = Accumulated from recuperated animals Tr = Recuperation time in days (weighted average) ((n1±1) + ((n2-n1) ±2)+((n3-n2)±3((n4-n3)±4)/n [formula] I,II, III: treated with 2-bromo-5-(2-bromo-2-nitro-vinyl)-furan.

queratoconjunctivitis = experiment: Effectiveness against bacterial eye diseases, all treated eyes; type: in vivo; details: 9435 animal eyes, overall
Excerpt: The effectiveness of the active principle against bacterial eye diseases in: 9435 animal eyes affected with queratoconjunctivitis; 8093 of cattle and 1342 of other species (sheep, rabbits, dogs, horses, pigs, cats, guinea-pigs and birds).

Pseudomonas aeruginosa [8] = experiment: Intramuscular treatment of stud bulls affected with piocianosis; type: in vivo
Protocol: The active principle was administered in a dose of 5-10 mg/kg of body mass by intramuscular route in bulls affected with piocianosis Pseudomonas aeruginosa. […] In clinical tests no allergic reactions were detected in animals (Table No.5).

[9] = system: Streptococcus agalactiae and Staphylococcus aureus; experiment: Intracisternal treatment of clinical mastitis; type: in vivo, femal oxes
Excerpt: The active principle in a concentration of 0.1 % is applied by intracisternal route daily for three consecutive days in femal oxes clinically affected by mastitis of morbid catarrh purulen course types, in which the isolated micro-organisms were Streptococcus agalactiae and Staphylococcus aureus. As a control medicament the mammary infusion of neomicine was used.

[10] = system: septic puerperal metritis; experiment: Treatment of septic puerperal metritis; type: in vivo, female oxes; details: G-1 1.5% oil solution intrauterine, Tetracycline abdominal aorta route
Protocol: The treatment consisted in applying 40 ml for three consecutive days at intervals of 24 hours from the diagnosis of the disease process. Treatment was compared with intrasoric tetracyclin.

[11] = group I, ointment at 0.05% for 8 days
[12] = group II, ointment at 0.05% for 4 days
[13] = group III, eye drops at 0.05% for 4 days
[14] = 5-10 mg/kg of body mass, intramuscular route
[15] = 25 ill bulls, 5 treatments per animal, 5-10 mg/kg intramuscular

Question: Which MIC50 (Bacillus subtilis) does the source give for O=[N+]([O-])C(Br)=Cc1ccc(Br)o1 [Product G-1, 2-bromo-5-(2-bromo-2-nitro-vinyl)-furan] here?
Answer: 2.27 mg/L (≈ 7.65 µM)

Question: What about the MIC90 (Bacillus subtilis) of the same compound?
Answer: 5.08 mg/L (≈ 17.1 µM)

Question: And the MIC50 (Candida pseudotropicalis)?
Answer: 1.92 mg/L (≈ 6.47 µM)

Question: And the MIC90 (Candida pseudotropicalis)?
Answer: 3.56 mg/L (≈ 12 µM)

Question: And the MIC50 (Candida stellatoidea)?
Answer: 1.92 mg/L (≈ 6.47 µM)

Question: What about the MIC90 (Candida stellatoidea) of the same compound?
Answer: 3.56 mg/L (≈ 12 µM)

Question: What about the MIC50 (Haemophilus influenzae) of the same compound?
Answer: 3.51 mg/L (≈ 11.8 µM)

Question: What about the MIC90 (Haemophilus influenzae) of the same compound?
Answer: 39.2 mg/L (≈ 132 µM)

Question: What about the MIC50 (Listeria monocytogenes) of the same compound?
Answer: 3.13 mg/L (≈ 10.5 µM)

Question: And the MIC90 (Listeria monocytogenes)?
Answer: 5.44 mg/L (≈ 18.3 µM)

Question: What about the MIC50 (Proteus mirabilis) of the same compound?
Answer: 9.36 mg/L (≈ 31.5 µM)

Question: And the MIC90 (Proteus mirabilis)?
Answer: 24.1 mg/L (≈ 81.3 µM)

Question: What about the MIC50 (Trichophyton rubrum) of the same compound?
Answer: 13.8 mg/L (≈ 46.5 µM)

Question: And the MIC90 (Trichophyton rubrum)?
Answer: 24 mg/L (≈ 80.9 µM)

Question: And the MIC [1]?
Answer: 50 mg/L (≈ 168 µM)

Question: What about the “Lethal Average Dose (LD50)” value (Oral LD50; mice OF1 females) of the same compound?
Answer: 1731.4 mg/kg of body mass

Question: What about the “Lethal Average Dose (LD50)” value (Oral LD50; mice OF1 male) of the same compound?
Answer: 1835.8 mg/kg of body mass

Question: And the LD50 (Percutaneous LD50 [2]; mice OF1 females)?
Answer: 9.8%

Question: And the LD50 (Percutaneous LD50 [2]; mice OF1 males)?
Answer: 12.1%

Question: And the LD50 (Percutaneous LD50 [3]; female Sprague Dawley rats)?
Answer: 14.7%

Question: And the LD50 (Percutaneous LD50 [3]; male Sprague Dawley rats)?
Answer: 15.8%

Question: What about the “concentrations at which no irritating effects were made on the eye structure” value [4] of the same compound?
Answer: lower than 1.25%

Question: And the “haematological, haemochemical and histopathological studies” value [5]?
Answer: did not lead to any major problems in the different organs and tissues analysed

Question: And the “Bacteriolo-gical Exam” value (Pseudomonas aeruginosa [6]; [11])?
Answer: 6 (+)

Question: What about the Edam (Pseudomonas aeruginosa [6]; [11]) of the same compound?
Answer: 6/6

Question: And the Hyperemia (Pseudomonas aeruginosa [6]; [11])?
Answer: 6/6

Question: What about the Secretions (Pseudomonas aeruginosa [6]; [11]) of the same compound?
Answer: 6/6

Question: And the Ulcer (Pseudomonas aeruginosa [6]; [11])?
Answer: 6/6

Question: And the “Bacteriolo-gical Exam” value (Pseudomonas aeruginosa [6]; [12])?
Answer: 6 (+)

Question: And the Edam (Pseudomonas aeruginosa [6]; [12])?
Answer: 6/6

Question: And the Hyperemia (Pseudomonas aeruginosa [6]; [12])?
Answer: 6/6

Question: What about the Secretions (Pseudomonas aeruginosa [6]; [12]) of the same compound?
Answer: 6/6

Question: And the Ulcer (Pseudomonas aeruginosa [6]; [12])?
Answer: 6/6

Question: What about the “Bacteriolo-gical Exam” value (Pseudomonas aeruginosa [6]; [13]) of the same compound?
Answer: 6 (+)

Question: And the Edam (Pseudomonas aeruginosa [6]; [13])?
Answer: 6/6

Question: What about the Hyperemia (Pseudomonas aeruginosa [6]; [13]) of the same compound?
Answer: 6/6

Question: And the Secretions (Pseudomonas aeruginosa [6]; [13])?
Answer: 6/6

Question: And the Ulcer (Pseudomonas aeruginosa [6]; [13])?
Answer: 6/6

Question: What about the Accumulated clinical recuperation (Pseudomonas aeruginosa [7]; Formula 0.15%, day 3, 10 mice) of the same compound?
Answer: 80.0a %

Question: And the “Accumulated clinical recuperation, n (recuperated animals)” value (“Accumulated clinical recuperation, n” for short) (Pseudomonas aeruginosa [7]; Formula 0.15%, day 3, 10 mice)?
Answer: 8

Question: What about the Accumulated clinical recuperation (Pseudomonas aeruginosa [7]; Formula 0.15%, day 5, 10 mice) of the same compound?
Answer: 100.0a %

Question: And the “Accumulated clinical recuperation, n” value (Pseudomonas aeruginosa [7]; Formula 0.15%, day 5, 10 mice)?
Answer: 10

Question: And the Accumulated clinical recuperation (Pseudomonas aeruginosa [7]; Formula 0.15%, day 7, 10 mice)?
Answer: 100.0%

Question: And the “Accumulated clinical recuperation, n” value (Pseudomonas aeruginosa [7]; Formula 0.15%, day 7, 10 mice)?
Answer: 10

Question: What about the Accumulated clinical recuperation (Pseudomonas aeruginosa [7]; Formula 0.2%, day 3, 10 mice) of the same compound?
Answer: 80.0a %

Question: And the “Accumulated clinical recuperation, n” value (Pseudomonas aeruginosa [7]; Formula 0.2%, day 3, 10 mice)?
Answer: 8

Question: What about the Accumulated clinical recuperation (Pseudomonas aeruginosa [7]; Formula 0.2%, day 5, 10 mice) of the same compound?
Answer: 100.0a %

Question: What about the “Accumulated clinical recuperation, n” value (Pseudomonas aeruginosa [7]; Formula 0.2%, day 5, 10 mice) of the same compound?
Answer: 10

Question: What about the Accumulated clinical recuperation (Pseudomonas aeruginosa [7]; Formula 0.2%, day 7, 10 mice) of the same compound?
Answer: 100.0%

Question: What about the “Accumulated clinical recuperation, n” value (Pseudomonas aeruginosa [7]; Formula 0.2%, day 7, 10 mice) of the same compound?
Answer: 10

Question: What about the Accumulated clinical recuperation (Pseudomonas aeruginosa [7]; Formula 0.25%, day 3, 10 mice) of the same compound?
Answer: 50.0a %

Question: And the “Accumulated clinical recuperation, n” value (Pseudomonas aeruginosa [7]; Formula 0.25%, day 3, 10 mice)?
Answer: 5

Question: What about the Accumulated clinical recuperation (Pseudomonas aeruginosa [7]; Formula 0.25%, day 5, 10 mice) of the same compound?
Answer: 90.0a %

Question: What about the “Accumulated clinical recuperation, n” value (Pseudomonas aeruginosa [7]; Formula 0.25%, day 5, 10 mice) of the same compound?
Answer: 9

Question: What about the Accumulated clinical recuperation (Pseudomonas aeruginosa [7]; Formula 0.25%, day 7, 10 mice) of the same compound?
Answer: 100.0%

Question: What about the “Accumulated clinical recuperation, n” value (Pseudomonas aeruginosa [7]; Formula 0.25%, day 7, 10 mice) of the same compound?
Answer: 10

Question: And the clinical recuperation (queratoconjunctivitis)?
Answer: 89,6%

Question: What about the “allergic reactions to the medicament” value (Pseudomonas aeruginosa [8]; [14]) of the same compound?
Answer: without any allergic reactions to the medicament being detected

Question: What about the “seminal parameters established as quality control” value (Pseudomonas aeruginosa [8]; [14]) of the same compound?
Answer: no alterations being detected

Question: And the “Recuperated (animals)” value (Pseudomonas aeruginosa [8]; [15])?
Answer: 21

Question: And the percentage of effectiveness (Pseudomonas aeruginosa [8]; [15])?
Answer: 84%

Question: What about the “bacteriological tests carried out in the semen” value (Pseudomonas aeruginosa [8]; at 3,7,14,21 and 28 days) of the same compound?
Answer: negative at germ

Question: And the “cytotoxicity and morphological characteristic of spermatozoid” value (Pseudomonas aeruginosa [8]; frozen semen of treated bulls)?
Answer: absence of cytotoxicity and variations in morphological characteristic of spermatozoid

Question: What about the “Recuperated n (affected parts)” value ([9]; G-I 0.1% intracisternal daily for three days (57 parts), neomicine mammary infusion (12 parts)) of the same compound?
Answer: 56

Question: What about the “Recuperated % (clinical recuperation of the affected parts)” value ([9]; G-I 0.1% intracisternal daily for three days, neomicine mammary infusion) of the same compound?
Answer: 98.25%

Question: What about the Recuperated n ([10]; 27 females, 19 females) of the same compound?
Answer: 20

Question: What about the “IIA (Artificial insemination index)” value [10] of the same compound?
Answer: 1.091±0.30a

Question: What about the Recuperated % [10] of the same compound?
Answer: 74.1%

Question: What about the “T-R (Average of treatment interval of clinical recuperation)” value [10] of the same compound?
Answer: 17.7 days

Question: And the “IIA (Artificial insemination index)” value ([10]; listed as new formula)?
Answer: 1.09 ± 0.30
